Data reported in BigSolDB 2.1.

OC[C@H]1O[C@@H](Oc2ccc(O)cc2)[C@H](O)[C@@H](O)[C@@H]1O
solubility (mole fraction)
Conditions	283.15 K	288.15 K	293.15 K	298.15 K	303.15 K	313.15 K	323.15 K
in 1,4-dioxane	0.0046	–	0.00491	–	0.00579	0.00696	0.00816
in acetone	0.000601	–	0.000781	–	0.000962	0.00126	0.00161
in acetonitrile	3.5e-05	–	7.2e-05	–	0.000145	0.000239	0.000365
in dichloromethane	4e-06	7e-06	1e-05	1.3e-05	1.6e-05	–	–
in ethanol	0.00228	–	0.00274	–	0.00351	0.0044	0.00582
in ethyl acetate	0.000155	–	0.00016	–	0.000166	0.000173	0.00018
in isopropanol	0.000532	–	0.000795	–	0.00128	0.00172	0.00259
in methanol	0.0112	–	0.0129	–	0.0151	0.0181	0.0226
in n-pentanol	0.000338	–	0.000471	–	0.000689	0.000851	0.00119
in n-propanol	0.000787	–	0.00102	–	0.00142	0.00185	0.00248
in sec-butanol	0.000355	–	0.000691	–	0.000969	0.00167	0.00226
in water	0.00524	–	0.00796	–	0.0108	0.0173	0.0283
